Patent US20250171417A1, “HETEROCYCLIC DERIVATIVE, AND COMPOSITION AND PHARMACEUTICAL USE THEREOF” (Xizang Haisco Pharmaceutical Co., Ltd., priority 2021, published 2025)
Like-named read-outs stand apart in the source and are kept apart here.

Test system: Prostate cancer cells 22RV1
Assay: Experiment on inhibiting 22RV1 cell proliferation (CellTiter-Glo, 7 days)
Format: cell-based
Conditions: Homo sapiens, 168 h, 22RV1 cells, 7 days incubation, read-out: IC50 values for inhibition of 22RVI cells
In short: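 22RV1 cells at 2000/well in 1% charcoal-stripped-FBS phenol red-free medium, treated next day with compound for 7 days at 37 °C, 5% CO2. Viability by CellTiter-Glo luminescence; inhibition relative to DMSO vehicle, IC50 from dose-response fit.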

[1] = cells with nM printed beside the value

| SMILES | IC50 [1] | IC50 (cells without a unit of their own (μM)) |
| --- | --- | --- |
| [2H]C([2H])([2H])C(C(=O)Nc1ccc(C#N)cc1C1CC1)(n1cc(C#CC2CN(c3ccc4c(c3)C(=O)N(C3CCC(=O)NC3=O)C4=O)C2)cn1)C([2H])([2H])[2H] (centres unmarked) [Compound 186, N-(4-cyano-2-cyclopropylphenyl)-2-(4-((1-(2-(2,6-dioxopiperidin-3-yl)-1,3-dioxoisoindolin-S-yl)azetidin-3-yl)ethynyl)-1H-pyrazol-1-yl)-2,2-(dimethyl-d6) acetamide] | < 100 nM |  |
| [2H]C([2H])([2H])C(C(=O)Nc1ccc(C(F)(F)F)cc1C1CC1)(n1cc(C#CC2CN(c3ccc4c(c3)C(=O)N(C3CCC(=O)NC3=O)C4=O)C2)cn1)C([2H])([2H])[2H] (centres unmarked) [Compound 187, N-(2-cyclopropyl-4-(trifluoromethyl)phenyl)-2-(4-((1-(2-(2,6-dioxopiperidin-3-yl)-1,3-dioxoisoindolin-5-yl)azetidin-3-yl)ethynyl)-1H-pyrazol-1-yl)-2,2-(dimethyl-d6) acetamide] | < 100 nM |  |
| C#Cc1cc(C#N)ccc1NC(=O)C(C)(C)n1cc(C#CC2CN(c3ccc4c(c3)C(=O)N(C3CCC(=O)NC3=O)C4=O)C2)cn1 (centres unmarked) [Compound 189, N-(4-cyano-2-ethynylphenyl)-2-(4-((1-(2-(2,6-dioxopiperidin-3-yl)-1,3-dioxoisoindolin-5-yl)azetidin-3-yl)ethynyl)-1H-pyrazol-1-yl)-2-methylpropanamide] | < 100 nM |  |
| CC(C)(C(=O)Nc1ccc(C(F)(F)F)cc1C=C(F)F)n1cc(C#CC2CN(c3ccc4c(c3)C(=O)N(C3CCC(=O)NC3=O)C4=O)C2)cn1 (centres unmarked) [Compound 190, N-(2-(2,2-difluorovinyl)-4-(trifluoromethyl)phenyl)-2-(4-((1-(2-(2,6-dioxopiperidin-3-yl)-1,3-dioxoisoindolin-5-yl)azetidin-3-yl)ethynyl)-1H-pyrazol-1-yl)-2-methylpropanamide] | < 100 nM |  |
| CC#Cc1cc(C(F)(F)F)ccc1NC(=O)C(C)(C)n1nc(C)c(C#CC2CN(c3ccc4c(c3)C(=O)N(C3CCC(=O)NC3=O)C4=O)C2)c1C (centres unmarked) [Compound 192, 2-(4-((1-(2-(2,6-dioxopiperidin-3-yl)-1,3-dioxoisoindolin-5-yl)azetidin-3-yl)ethynyl)-3,5-dimethyl-1H-pyrazol-1-yl)-2-methyl-N-(2-(prop-1-yn-1-yl)-4-(trifluoromethyl)phenyl) propanamide] | < 100 nM |  |
| CC#Cc1cc(C(F)(F)F)ccc1NC(=O)C(C)(C)n1cc(C#CC2CN(c3ccc4c(c3)C(=O)N(C3CCC(=O)NC3=O)C4=O)C2)c(C)n1 (centres unmarked) [Compound 193, 2-(4-((1-(2-(2,6-dioxopiperidin-3-yl)-1,3-dioxoisoindolin-5-yl)azetidin-3-yl)ethynyl)-3-methyl-1H-pyrazol-1-yl)-2-methyl-N-(2-(prop-1-yn-1-yl)-4-(trifluoromethyl)phenyl) propanamide] | < 100 nM |  |
| CC#Cc1cc(C(F)(F)F)ccc1NC(=O)C(C)(C)n1ncc(C#CC2CN(c3ccc4c(c3)C(=O)N(C3CCC(=O)NC3=O)C4=O)C2)c1C (centres unmarked) [Compound 194, 2-(4-((1-(2-(2,6-dioxopiperidin-3-yl)-1,3-dioxoisoindolin-5-yl)azetidin-3-yl)ethynyl)-5-methyl-1H-pyrazol-1-yl)-2-methyl-N-(2-(prop-1-yn-1-yl)-4-(trifluoromethyl)phenyl) propanamide] | < 100 nM |  |
| O=C1CCC(N2C(=O)c3ccc(N4CC(N5Cc6cn(C7(C(=O)Nc8ccc(C(F)(F)F)cc8Cl)CCC7)nc6C5)C4)cc3C2=O)C(=O)N1 (centres unmarked) [Compound 197, N-(2-chloro-4-(trifluoromethyl)phenyl)-1-(5-(1-(2-(2,6-dioxopiperidin-3-yl)-1,3-dioxoisoindolin-5-yl)azetidin-3-yl)-5,6-dihydropyrrolo[3,4-c]pyrazol-2 (4H)-yl)cyclobutane-1-carboxamide] |  | < 1000 nM |
